The results in this text go back to patent publication US20230279025A1, “KRAS G12D INHIBITORS” (Mirati Therapeutics, Inc., priority 2020, published 2023).

The term IC50 denotes the concentration that inhibits the measured activity by half. Higher therefore signals lower potency.

Structures can show the parent of a compound that is named as a salt.

For the assay, the target named is KRas G12D (Homo sapiens (Human), UniProt P01116, G12D). Put plainly: KRas G12D Binding Assay (TR-FRET displacement of Cy5 labelled tracer). The note with it: GDP-loaded KRAS G12D (amino acids 1:169), 60 minute incubation at 22° C. Here is the method:
After a 60 minute incubation at 22° C., the reaction was measured using a PerkinElmer EnVision multimode plate reader via TR-FRET dual wavelength detection, and the percent of control (POC) calculated using a ratiometric emission factor. […] The POC values were fit to a 4-parameter logistic curve and the IC50 value was determined as the concentration where the curve crosses 50 POC.
ND stands for “not determined.”

Chain of KRas G12D (P01116 other isoform, or with tags, fused parts or gaps G12D): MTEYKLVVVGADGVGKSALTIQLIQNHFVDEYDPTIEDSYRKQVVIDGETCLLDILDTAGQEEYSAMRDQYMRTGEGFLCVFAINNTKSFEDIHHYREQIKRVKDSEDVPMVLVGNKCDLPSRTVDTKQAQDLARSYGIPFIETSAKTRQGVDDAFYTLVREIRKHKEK

Molecule `Cc1ccc2[nH]ncc2c1-c1ncc2c(N3C[C@H]4CC[C@@H](C3)N4)nc(OCC34CCCN3CCC4)nc2c1F` [Example 332, 4-((1R,5S)-3,8-diazabicyclo[3.2.1]octan-3-yl)-8-fluoro-7-(5-methyl-1H-indazol-4-yl)-2-((tetrahydro-1H-pyrrolizin-7a(5H)-yl)methoxy)pyrido[4,3-d]pyrimidine] displayed an IC50 of 164 nM.
The value for `Cn1cc([C@H]2CN3CCC[C@]3(COc3nc(N4CC5CCC(C4)N5)c4cnc(-c5cccc6cccc(Cl)c56)c(F)c4n3)C2)cn1` (stereo in doubt) [Example 220, 4-((1R,5S)-3,8-diazabicyclo[3.2.1]octan-3-yl)-7-(8-chloronaphthalen-1-yl)-8-fluoro-2-((2-(1-methyl-1H-pyrazol-4-yl)tetrahydro-1H-pyrrolizin-7a(5H)-yl)methoxy)pyrido[4,3-d]pyrimidine tris-hydrochloride salt] was 8.7 nM; that for `CCC(C)c1ccccc1-c1ncc2c(N3C[C@H]4CC[C@@H](C3)N4)nc(OCC34CCCN3CCC4)nc2c1F` (stereo partly drawn) [Example 300, 4-((1R,5S)-3,8-diazabicyclo[3.2.1]octan-3-yl)-7-(2-(sec-butyl)phenyl)-8-fluoro-2-((hexahydro-1H-pyrrolizin-7a-yl)methoxy)pyrido[4,3-d]pyrimidine] was 768 nM; that for `CCn1ccc2cccc(-c3ncc4c(N5C[C@H]6CC[C@@H](C5)N6)nc(OCC56CCCN5CCC6)nc4c3F)c21` [Example 427, 4-((1R,5S)-3,8-diazabicyclo[3.2.1]octan-3-yl)-7-(1-ethyl-1H-indol-7-yl)-8-fluoro-2-((hexahydro-1H-pyrrolizin-7a-yl)methoxy)pyrido[4,3-d]pyrimidine] was 35.3 nM.
The value for `CN1CCC[C@H]1COc1nc(N2CC3CCC(C(N)=O)(C2)N3)c2cnc(-c3cc(O)cc4ccccc34)c(F)c2n1` (stereo partly drawn) [Example 159, 3-(8-fluoro-7-(3-hydroxynaphthalen-1-yl)-2-(((S)-1-methylpyrrolidin-2-yl)methoxy)pyrido[4,3-d]pyrimidin-4-yl)-3,8-diazabicyclo[3.2.1]octane-1-carboxamide bis(2,2,2-trifluoroacetate)] was 331 nM; that for `CC1(c2ccccc2-c2ncc3c(N4C[C@H]5CC[C@@H](C4)N5)nc(OCC45CCCN4CCC5)nc3c2F)CC1` [Example 305, 4-((1R,5S)-3,8-diazabicyclo[3.2.1]octan-3-yl)-8-fluoro-2-((hexahydro-1H-pyrrolizin-7a-yl)methoxy)-7-(2-(1-methylcyclopropyl)phenyl)pyrido[4,3-d]pyrimidine] was 367 nM; that for `Fc1c(-c2cccc(Cl)c2C2CC2)ncc2c(N3C[C@H]4CC[C@@H](C3)N4)nc(OCC34CCCN3CCC4)nc12` [Example 322, 4-((1R,5S)-3,8-diazabicyclo[3.2.1]octan-3-yl)-7-(3-chloro-2-cyclopropylphenyl)-8-fluoro-2-((tetrahydro-1H-pyrrolizin-7a(5H)-yl)methoxy)pyrido[4,3-d]pyrimidine] was 4.9 nM.
Consider `Fc1c(-c2cccc3cccc(Br)c23)ncc2c(N3C[C@H]4CC[C@@H](C3)N4)nc(OCC34CCCN3CCC4)nc12` [Example 235, 4-((1R,5S)-3,8-diazabicyclo[3.2.1]octan-3-yl)-7-(8-bromonaphthalen-1-yl)-8-fluoro-2-((tetrahydro-1H-pyrrolizin-7a(5H)-yl)methoxy)pyrido[4,3-d]pyrimidine], for which the IC50 is 1.2 nM.
`C#CCc1ccc(O)cc1-c1ncc2c(N3C[C@H]4CC[C@@H](C3)N4)nc(OCC34CCCN3CCC4)nc2c1F` [Example 279, 3-(4-((1R,5S)-3,8-diazabicyclo[3.2.1]octan-3-yl)-8-fluoro-2-((hexahydro-1H-pyrrolizin-7a-yl)methoxy)pyrido[4,3-d]pyrimidin-7-yl)-4-(prop-2-yn-1-yl)phenol] gave an IC50 of 1.6 nM.
In turn, `CSc1cccc2cccc(-c3ncc4c(N5C[C@H]6CC[C@@H](C5)N6)nc(OCC56CCCN5CCC6)nc4c3F)c12` [Example 199, 4-((1R,5S)-3,8-diazabicyclo[3.2.1]octan-3-yl)-8-fluoro-7-(8-(methylthio)naphthalen-1-yl)-2-((tetrahydro-1H-pyrrolizin-7a(5H)-yl)methoxy)pyrido[4,3-d]pyrimidine] had an IC50 of 2 nM.
On to `Fc1c(-c2cccc3cccc(Cl)c23)ncc2c(N3C[C@H]4CC[C@@H](C3)N4)nc(OC[C@H]3CCCO3)nc12` [Example 137, 4-((1R,5S)-3,8-diazabicyclo[3.2.1]octan-3-yl)-7-(8-chloronaphthalen-1-yl)-8-fluoro-2-(((R)-tetrahydrofuran-2-yl)methoxy)pyrido[4,3-d]pyrimidine], for which the 50% inhibitory concentration (IC50) amounted to 2630 nM.
The value for `Cn1ccc(CCOc2nc(N3C[C@H]4CC[C@@H](C3)N4)c3cnc(-c4cccc5cccc(Cl)c45)c(F)c3n2)n1` [Example 145, 4-((1R,5S)-3,8-diazabicyclo[3.2.1]octan-3-yl)-7-(8-chloronaphthalen-1-yl)-8-fluoro-2-(2-(1-methyl-1H-pyrazol-3-yl)ethoxy)pyrido[4,3-d]pyrimidine] was 5000 nM; that for `Oc1ccc(OC(F)(F)F)c(-c2ncc3c(N4C[C@H]5CC[C@@H](C4)N5)nc(OCC45CCCN4CCC5)nc3c2F)c1` [Example 341, 3-(4-((1R,5S)-3,8-diazabicyclo[3.2.1]octan-3-yl)-8-fluoro-2-((tetrahydro-1H-pyrrolizin-7a(5H)-yl)methoxy)pyrido[4,3-d]pyrimidin-7-yl)-4-(trifluoromethoxy)phenol] was 0.7 nM; that for `Fc1c(-c2cccc3cccc(Cl)c23)ncc2c(N3C[C@H]4CC[C@@H](C3)N4)nc(OCc3cccn4ccnc34)nc12` [Example 150, 4-((1R,5S)-3,8-diazabicyclo[3.2.1]octan-3-yl)-7-(8-chloronaphthalen-1-yl)-8-fluoro-2-(imidazo[1,2-a]pyridin-8-ylmethoxy)pyrido[4,3-d]pyrimidine] was 1980 nM.
As to `Oc1cc(-c2ncc3c(N4C[C@H]5CC[C@@H](C4)N5)nc(OCCC(F)(F)F)nc3c2F)c2c(Cl)cccc2c1` [Example 393, 4-(4-((1R,5S)-3,8-diazabicyclo[3.2.1]octan-3-yl)-8-fluoro-2-(3,3,3-trifluoropropoxy)pyrido[4,3-d]pyrimidin-7-yl)-5-chloronaphthalen-2-ol], the IC50 came to 76.3 nM.
The molecule `Fc1c(-c2cccc3c2OC(F)(F)O3)ncc2c(N3C[C@H]4CC[C@@H](C3)N4)nc(OCC34CCCN3CCC4)nc12` [Example 196, 4-((1R,5S)-3,8-diazabicyclo[3.2.1]octan-3-yl)-7-(2,2-difluorobenzo[d][1,3]dioxol-4-yl)-8-fluoro-2-((tetrahydro-1H-pyrrolizin-7a(5H)-yl)methoxy)pyrido[4,3-d]pyrimidine] registered a 50% inhibitory concentration (IC50) of 467 nM.
For the molecule `CC(C)(O)c1ccccc1-c1ncc2c(N3CC4CCC(C3)N4)nc(OC[C@@]34CCCN3C[C@H](F)C4)nc2c1F` (stereo in doubt) [Example 402, 2-(2-(4-((1R,5S)-3,8-diazabicyclo[3.2.1]octan-3-yl)-8-fluoro-2-((2-fluorotetrahydro-1H-pyrrolizin-7a(5H)-yl)methoxy)pyrido[4,3-d]pyrimidin-7-yl)phenyl)propan-2-ol], the IC50 was found to be 8020 nM.
On to `CCCc1ccccc1-c1ncc2c(N3C[C@H]4CC[C@@H](C3)N4)nc(OCC34CCCN3CCC4)nc2c1F` [Example 447, 4-((1R,5S)-3,8-diazabicyclo[3.2.1]octan-3-yl)-8-fluoro-7-(2-propylphenyl)-2-((tetrahydro-1H-pyrrolizin-7a-(5H)-yl)methoxy)pyrido[4,3-d]pyrimidine], for which the IC50 was 297 nM.
Molecule `Oc1cc(-c2ncc3c(N4CC5CCC(C4)N5)nc(OCCN4C[C@@H]5C[C@H]4CO5)nc3c2F)c2ccccc2c1` [Example 461, 4-(2-(2-((1S,4S)-2-oxa-5-azabicyclo[2.2.1]heptan-5-yl)ethoxy)-4-((1R,5S)-3,8-diazabicyclo[3.2.1]octan-3-yl)-8-fluoropyrido[4,3-d]pyrimidin-7-yl)naphthalen-2-ol] came in with an IC50 of 0.062 nM.
`CN1CCC[C@H]1COc1nc(N2C[C@H]3CC[C@@H](C2)N3)c2cnc(-c3cc(O)cc4ccccc34)c(Cl)c2n1` [Example 191, 4-(4-((1R,5S)-3,8-diazabicyclo[3.2.1]octan-3-yl)-8-chloro-2-(((S)-1-methylpyrrolidin-2-yl)methoxy)pyrido[4,3-d]pyrimidin-7-yl)naphthalen-2-ol] showed an IC50 of 69.1 nM.
For the molecule `Fc1c(-c2cccc3c2CCC3)ncc2c(N3CC4CCC(C3)N4)nc(OC[C@@]34CCCN3C[C@H](F)C4)nc12` [Example 428, 4-(3,8-diazabicyclo[3.2.1]octan-3-yl)-7-(2,3-dihydro-1H-inden-4-yl)-8-fluoro-2-(((2R,7aS)-2-fluorotetrahydro-1H-pyrrolizin-7a(5H)-yl)methoxy)pyrido[4,3-d]pyrimidine], the IC50 is 92.1 nM.
In turn, `CC(Oc1nc(N2C[C@H]3CC[C@@H](C2)N3)c2cnc(-c3cccc4cccc(F)c34)c(F)c2n1)C12CCCN1CCC2` (stereo partly drawn) [Example 450, 4-((1R,5S)-3,8-diazabicyclo[3.2.1]octan-3-yl)-8-fluoro-7-(8-fluoronaphthalen-1-yl)-2-(1-(hexahydro-1H-pyrrolizin-7a-yl)ethoxy)pyrido[4,3-d]pyrimidine] gave an IC50 of 37 nM.
`Fc1c(-c2ccccc2OC(F)(F)F)ncc2c(N3C[C@H]4CC[C@@H](C3)N4)nc(OCC34CCCN3CCC4)nc12` [Example 229, 4-((1R,5S)-3,8-diazabicyclo[3.2.1]octan-3-yl)-8-fluoro-2-((tetrahydro-1H-pyrrolizin-7a(5H)-yl)methoxy)-7-(2-(trifluoromethoxy)phenyl)pyrido[4,3-d]pyrimidine bis-hydrochloride] showed an IC50 of 121 nM.
In the case of `C#Cc1cccc2cccc(-c3ncc4c(N5CC6CCC(C5)N6)ncnc4c3F)c12` [Example 188, 4-(3,8-diazabicyclo[3.2.1]octan-3-yl)-7-(8-ethynyl-1-naphthyl)-8-fluoro-pyrido[4,3-d]pyrimidine], the IC50 is 1920 nM.
